Measured values: US10597388B2, “Pyridazinone herbicides” (FMC CORPORATION, priority 2014, dated 2020)

Experiments:
Assay in all cases: Test D controlled growth environment herbicide test, pre- and postemergence
Type in all cases: in vivo
[1] = system: barley, winter (winter barley, Hordeum vulgare)
Outline: (§1)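 Species sown in silt loam and sprayed preemergence, or grown in peat-based medium to 2–18 cm (1- to 4-leaf stage) and sprayed postemergence, with compounds in non-phytotoxic solvent plus surfactant. Visual injury scored versus controls after 14–21 d in a controlled environment, 0 (no effect) to 100 (complete control).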

[2] = system: blackgrass (Alopecurus myosuroides)
Outline: as §1

[3] = system: chickweed (common chickweed, Stellaria media)
Outline: as §1

[4] = system: deadnettle (henbit deadnettle, Lamium amplexicaule)
Outline: as §1

[5] = system: foxtail, green (green foxtail, Setaria viridis)
Outline: as §1

[6] = system: galium (catchweed bedstraw, Galium aparine)
Outline: as §1

kochia (Kochia scoparia) = system: kochia (Kochia scoparia)
Outline: as §1

[7] = system: lambsquarters (Chenopodium album)
Outline: as §1

[8] = system: pigweed (Amaranthus retroflexus)
Outline: as §1

[9] = system: ryegrass, Italian (Italian ryegrass, Lolium multiflorum)
Outline: as §1

[10] = system: speedwell (bird's-eye speedwell, Veronica persica)
Outline: as §1

[11] = system: wheat, winter (winter wheat, Triticum aestivum)
Outline: as §1

[12] = system: windgrass (Apera spica-venti)
Outline: as §1

[13] = Postemergence, 31 g ai/ha, scale 0 to 100 (0 no effect, 100 complete control)
[14] = Postemergence, 125 g ai/ha, visual rating on scale 0 (no effect) to 100 (complete control), 14 to 21 d
[15] = Postemergence, 250 g ai/ha, scale 0 to 100 (0 no effect, 100 complete control)
[16] = Preemergence, 62 g ai/ha, scale 0 to 100 (0 no effect, 100 complete control)
[17] = Preemergence, 125 g ai/ha, scale 0 to 100 (0 no effect, 100 complete control)
[18] = Preemergence, 250 g ai/ha, scale 0 to 100 (0 no effect, 100 complete control)
[19] = postemergence, 62 g ai/ha, scale 0 to 100, 0 no effect, 100 complete control

`COC(=O)Oc1c(C)nn(C)c(=O)c1-c1c(C)sc2c(C)cc(C)cc12` [Compound 81] was tested, and the “Barley, Winter plant response rating” value [1, 13] was 0, the “Plant response rating, Barley, Winter” value [1, 14] was 0 and the “Plant response rating, Barley, Winter” value [1, 15] was 10. For the same compound, the “Plant response rating (scale of 0 to 100), Barley, Winter” value ([1]; Preemergence, 31 g ai/ha) was 0, the “Plant response rating, Barley, Winter” value [1, 16] was 0 and the “Plant response rating, Barley, Winter” value [1, 17] was 45. The “Plant response rating, Barley, Winter” value [1, 18] was 45, the “Plant response rating, Barley, Winter” value [1, 19] was 0 and the “Blackgrass plant response rating” value [2, 13] was 65. For the same compound, the “Plant response rating, Blackgrass” value [2, 14] was 80, the “Plant response rating, Blackgrass” value [2, 15] was 85 and the “Plant response rating (scale of 0 to 100), Blackgrass” value ([2]; Preemergence, 31 g ai/ha) was 55. For the same compound, the “Plant response rating, Blackgrass” value [2, 16] was 60, the “Plant response rating, Blackgrass” value [2, 17] was 70 and the “Plant response rating, Blackgrass” value [2, 18] was 85. For the same compound, the “Plant response rating, Blackgrass” value [2, 19] was 75, the “Chickweed plant response rating” value [3, 13] was 100 and the “Plant response rating, Chickweed” value [3, 14] was 100. For the same compound, the “Plant response rating, Chickweed” value [3, 15] was 100, the “Plant response rating (scale of 0 to 100), Chickweed” value ([3]; Preemergence, 31 g ai/ha) was 95 and the “Plant response rating, Chickweed” value [3, 16] was 100. The “Plant response rating, Chickweed” value [3, 17] was 100, the “Plant response rating, Chickweed” value [3, 18] was 100 and the “Plant response rating, Chickweed” value [3, 19] was 100. The “Deadnettle plant response rating” value [4, 13] was 15, the “Plant response rating, Deadnettle” value [4, 14] was 35 and the “Plant response rating, Deadnettle” value [4, 15] was 60. The “Plant response rating (scale of 0 to 100), Deadnettle” value ([4]; Preemergence, 31 g ai/ha) was 0, the “Plant response rating, Deadnettle” value [4, 16] was 0 and the “Plant response rating, Deadnettle” value [4, 17] was 5. For the same compound, the “Plant response rating, Deadnettle” value [4, 18] was 55, the “Plant response rating, Deadnettle” value [4, 19] was 35 and the “Foxtail, Green plant response rating” value [5, 13] was 80. For the same compound, the “Plant response rating, Foxtail, Green” value [5, 14] was 95, the “Plant response rating, Foxtail, Green” value [5, 15] was 100 and the “Plant response rating (scale of 0 to 100), Foxtail, Green” value ([5]; Preemergence, 31 g ai/ha) was 75. For the same compound, the “Plant response rating, Foxtail, Green” value [5, 16] was 65, the “Plant response rating, Foxtail, Green” value [5, 17] was 100 and the “Plant response rating, Foxtail, Green” value [5, 18] was 100. The “Plant response rating, Foxtail, Green” value [5, 19] was 95, the “Galium plant response rating” value [6, 13] was 100 and the “Plant response rating, Galium” value [6, 14] was 100. The “Plant response rating, Galium” value [6, 15] was 100, the “Plant response rating (scale of 0 to 100), Galium” value ([6]; Preemergence, 31 g ai/ha) was 25 and the “Plant response rating, Galium” value [6, 16] was 65. The “Plant response rating, Galium” value [6, 17] was 85, the “Plant response rating, Galium” value [6, 18] was 95 and the “Plant response rating, Galium” value [6, 19] was 100. The “Kochia plant response rating” value (kochia (Kochia scoparia); [13]) was 60, the “Plant response rating, Kochia” value (kochia (Kochia scoparia); [14]) was 90 and the “Plant response rating, Kochia” value (kochia (Kochia scoparia); [15]) was 95. The “Plant response rating (scale of 0 to 100), Kochia” value (kochia (Kochia scoparia); Preemergence, 31 g ai/ha) was 0, the “Plant response rating, Kochia” value (kochia (Kochia scoparia); [16]) was 0 and the “Plant response rating, Kochia” value (kochia (Kochia scoparia); [17]) was 25. For the same compound, the “Plant response rating, Kochia” value (kochia (Kochia scoparia); [18]) was 15, the “Plant response rating, Kochia” value (kochia (Kochia scoparia); [19]) was 85 and the “Lambsquarters plant response rating” value [7, 13] was 95. For the same compound, the “Plant response rating, Lambsquarters” value [7, 14] was 100, the “Plant response rating, Lambsquarters” value [7, 15] was 100 and the “Plant response rating (scale of 0 to 100), Lambsquarters” value ([7]; Preemergence, 31 g ai/ha) was 55. The “Plant response rating, Lambsquarters” value [7, 16] was 95, the “Plant response rating, Lambsquarters” value [7, 17] was 70 and the “Plant response rating, Lambsquarters” value [7, 18] was 95. The “Plant response rating, Lambsquarters” value [7, 19] was 100, the “Pigweed plant response rating” value [8, 13] was 100 and the “Plant response rating, Pigweed” value [8, 14] was 100. The “Plant response rating, Pigweed” value [8, 15] was 100, the “Plant response rating (scale of 0 to 100), Pigweed” value ([8]; Preemergence, 31 g ai/ha) was 95 and the “Plant response rating, Pigweed” value [8, 16] was 100. For the same compound, the “Plant response rating, Pigweed” value [8, 17] was 100, the “Plant response rating, Pigweed” value [8, 18] was 100 and the “Plant response rating, Pigweed” value [8, 19] was 100. The “Ryegrass, Italian plant response rating” value [9, 13] was 85, the “Plant response rating, Ryegrass, Italian” value [9, 14] was 95 and the “Plant response rating, Ryegrass, Italian” value [9, 15] was 95. For the same compound, the “Plant response rating (scale of 0 to 100), Ryegrass, Italian” value ([9]; Preemergence, 31 g ai/ha) was 55, the “Plant response rating, Ryegrass, Italian” value [9, 16] was 65 and the “Plant response rating, Ryegrass, Italian” value [9, 17] was 85. The “Plant response rating, Ryegrass, Italian” value [9, 18] was 100, the “Plant response rating, Ryegrass, Italian” value [9, 19] was 90 and the “Speedwell plant response rating” value [10, 13] was 75. The “Plant response rating, Speedwell” value [10, 14] was 95, the “Plant response rating, Speedwell” value [10, 15] was 100 and the “Plant response rating (scale of 0 to 100), Speedwell” value ([10]; Preemergence, 31 g ai/ha) was 55. For the same compound, the “Plant response rating, Speedwell” value [10, 16] was 60, the “Plant response rating, Speedwell” value [10, 17] was 100 and the “Plant response rating, Speedwell” value [10, 18] was 100. For the same compound, the “Plant response rating, Speedwell” value [10, 19] was 80, the “Wheat, Winter plant response rating” value [11, 13] was 0 and the “Plant response rating, Wheat, Winter” value [11, 14] was 5. The “Plant response rating, Wheat, Winter” value [11, 15] was 5, the “Plant response rating (scale of 0 to 100), Wheat, Winter” value ([11]; Preemergence, 31 g ai/ha) was 0 and the “Plant response rating, Wheat, Winter” value [11, 16] was 0. For the same compound, the “Plant response rating, Wheat, Winter” value [11, 17] was 5, the “Plant response rating, Wheat, Winter” value [11, 18] was 5 and the “Plant response rating, Wheat, Winter” value [11, 19] was 0. For the same compound, the “Windgrass plant response rating” value [12, 13] was 70, the “Plant response rating, Windgrass” value [12, 14] was 90 and the “Plant response rating, Windgrass” value [12, 15] was 95. The “Plant response rating (scale of 0 to 100), Windgrass” value ([12]; Preemergence, 31 g ai/ha) was 60, the “Plant response rating, Windgrass” value [12, 16] was 75 and the “Plant response rating, Windgrass” value [12, 17] was 90. For the same compound, the “Plant response rating, Windgrass” value [12, 18] was 100 and the “Plant response rating, Windgrass” value [12, 19] was 80.
